As usually defined, the EC50 is the concentration needed to bring the measured effect to its halfway point. High values mean a need for much substance, low ones an effect from little substance. The term IC50 denotes the midpoint of a concentration-inhibition curve.

Structures are written as SMILES.

The test system of assay [1] is KMS11 (human myeloma cell line). The experiment in a line: Cell Proliferation Assay (CellTiter-Glo, 3 days). The format is cell-based. To be noted: KMS-11, 72 h, KMS11-luc cells. The procedure, abridged: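 EC50 from CellTiter-Glo luminescence after 3-day, 37° C compound treatment of KMS11 cells seeded at 2000 per well in IMDM plus 10% FBS.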
In general terms: In ATP-based viability assays light output follows the ATP content of the culture.

The target of another assay is Pim 1 (Homo sapiens, UniProt P11309). The experiment in a line: Pim 1 AlphaScreen assay (high ATP). For orientation: In Alpha technology, singlet oxygen from a donor bead excites a nearby acceptor bead.
Chain of Pim 1 (P11309 whole entry): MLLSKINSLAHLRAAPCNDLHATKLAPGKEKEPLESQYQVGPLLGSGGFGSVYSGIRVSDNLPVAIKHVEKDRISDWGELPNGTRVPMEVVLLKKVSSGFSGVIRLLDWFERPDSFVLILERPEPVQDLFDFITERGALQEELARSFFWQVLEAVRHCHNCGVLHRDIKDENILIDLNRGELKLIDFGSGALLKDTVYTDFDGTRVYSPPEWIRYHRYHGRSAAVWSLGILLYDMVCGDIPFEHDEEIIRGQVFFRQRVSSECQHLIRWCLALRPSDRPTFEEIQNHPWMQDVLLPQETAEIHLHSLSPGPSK
Another assay concerns the target Pim 3 (Homo sapiens, UniProt Q86V86). As to the kind of experiment: Pim 3 AlphaScreen assay (high ATP).
For another assay, the target named is Pim 2 (Homo sapiens, UniProt Q9P1W9). As to the kind of experiment: Pim 2 AlphaScreen assay (high ATP).
Chain of Pim 2 (Q9P1W9 whole entry): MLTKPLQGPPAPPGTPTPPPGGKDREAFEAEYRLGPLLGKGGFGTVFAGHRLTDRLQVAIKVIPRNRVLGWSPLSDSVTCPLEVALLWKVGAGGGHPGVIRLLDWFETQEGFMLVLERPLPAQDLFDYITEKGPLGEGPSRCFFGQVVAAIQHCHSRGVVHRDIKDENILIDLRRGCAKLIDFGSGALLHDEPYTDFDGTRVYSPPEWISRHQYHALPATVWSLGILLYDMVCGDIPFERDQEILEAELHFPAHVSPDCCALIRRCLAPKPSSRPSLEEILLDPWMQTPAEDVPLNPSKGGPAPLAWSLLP

Procedure for Pim 1: The activity of Pim 1, Pim 2, & Pim 3 is measured using a homogeneous bead based system quantifying the amount of phosphorylated peptide substrate resulting from kinase-catalyzed phosphoryl transfer to a peptide substrate. Compounds to be tested are dissolved in 100% DMSO and directly distributed to a white 384-well plate at 0.25 μl per well. […] This is followed by the addition of 5 μl/well of Pim 1, Pim 2 or Pim 3 kinase in assay buffer (concentrations described below). Final assay concentrations (described below) are in 2.5% DMSO. The reactions are performed for ˜2 hours, then stopped by the addition of 10 μl of 0.75 μg/ml anti-phospho Ser/Thr antibody (Cell Signaling), 10 μg/ml Protein A AlphaScreen beads (Perkin Elmer), and 10 μg/ml streptavidin coated AlphaScreen beads in stop/detection buffer (50 mM EDTA, 95 mM Tris, pH=7.5, 0.01% Tween-20). The stopped reactions are incubated overnight in the dark. The phosphorylated peptide is detected via an oxygen anion initiated chemiluminescence/fluorescence cascade using the Envision plate reader (Perkin Elmer).

For the molecule `C[C@@H]1C[C@H](N)C[C@H](c2ccncc2NC(=O)c2ccc(F)c(-c3c(F)cc(CC(C)(C)O)cc3F)n2)C1` [Example 84, N-(4-((1R,3S,5S)-3-amino-5-methylcyclohexyl)pyridin-3-yl)-6-(2,6-difluoro-4-(2-hydroxy-2-methylpropyl)phenyl)-5-fluoropicolinamide], the EC50 in assay [1] amounted to 29000 pM. The IC50 against Pim 1 was determined as 20 pM; on Pim 3, 520 pM; at Pim 2, 1480 pM.
The matching figures for `C[C@H]1C[C@@H](c2ccncc2NC(=O)c2ccc(F)c(-c3c(F)cc(CC(C)(C)O)cc3F)n2)C[C@@H](N)[C@@H]1O` [Example 85, N-(4-((1R,3R,4R,5S)-3-amino-4-hydroxy-5-methylcyclohexyl)pyridin-3-yl)-6-(2,6-difluoro-4-(2-hydroxy-2-methylpropyl)phenyl)-5-fluoropicolinamide]: 49000 pM, 50 pM, 1340 pM and 2200 pM.
Regarding `C[C@@H]1C[C@H](N)C[C@H](c2ccncc2NC(=O)c2nc(-c3c(F)cc(OC4CCOCC4)cc3F)c(F)cc2N)C1` [Example 86, 3-amino-N-(4-((1R,3S,5S)-3-amino-5-methylcyclohexyl)pyridin-3-yl)-6-(2,6-difluoro-4-(tetrahydro-2H-pyran-4-yloxy)phenyl)-5-fluoropicolinamide], the EC50 in assay [1] is 17000 pM. For the same molecule, the IC50 against Pim 1 amounted to 10 pM; at Pim 3 it was 220 pM; against Pim 2, 910 pM.
The matching figures for `COC1(c2cc(F)c(-c3nc(C(=O)Nc4cnccc4N4C[C@@H](N)[C@H](O)[C@@H](C)C4)ccc3F)c(F)c2)COC1` [Example 88, N-(4-((3R,4R,5S)-3-amino-4-hydroxy-5-methylpiperidin-1-yl)pyridin-3-yl)-6-(2,6-difluoro-4-(3-methoxyoxetan-3-yl)phenyl)-5-fluoropicolinamide]: 17000 pM, 20 pM, 690 pM and 1180 pM.
In turn, `C[C@H]1CN(c2ccncc2NC(=O)c2ccc(F)c(-c3c(F)cc(C4(O)COC4)cc3F)n2)C[C@@H](N)[C@@H]1O` [Example 89, N-(4-((3R,4R,5S)-3-amino-4-hydroxy-5-methylpiperidin-1-yl)pyridin-3-yl)-6-(2,6-difluoro-4-(3-hydroxyoxetan-3-yl)phenyl)-5-fluoropicolinamide] registered an EC50 in assay [1] of 21000 pM. The IC50 against Pim 1 worked out at 10 pM; against Pim 3 it was 260 pM; at Pim 2, 670 pM.
The matching figures for `COC1(c2cc(F)c(-c3nc(C(=O)Nc4cnccc4[C@@H]4C[C@H](C)C[C@H](N)C4)c(N)cc3F)c(F)c2)COC1` [Example 90, 3-amino-N-(4-((1R,3S,5S)-3-amino-5-methylcyclohexyl)pyridin-3-yl)-6-(2,6-difluoro-4-(3-methoxyoxetan-3-yl)phenyl)-5-fluoropicolinamide]: 19000 pM, 10 pM, 710 pM and 720 pM.
In assay [1], `COC1(c2cc(F)c(-c3nc(C(=O)Nc4cnccc4[C@H]4C[C@@H](N)[C@H](O)[C@@H](C)C4)c(N)cc3F)c(F)c2)COC1` [Example 91, 3-amino-N-(4-((1R,3R,4R,5S)-3-amino-4-hydroxy-5-methylcyclohexyl)pyridin-3-yl)-6-(2,6-difluoro-4-(3-methoxyoxetan-3-yl)phenyl)-5-fluoropicolinamide] registered an EC50 of 25000 pM. For the same molecule, the figures for the IC50 at Pim 1, against Pim 3 and against Pim 2 were 20 pM, 930 pM and 1440 pM, respectively.
The matching figures for `C[C@H]1CN(c2ccncc2NC(=O)c2ccc(F)c(-c3c(F)cc(OCC4CC4)cc3F)n2)C[C@@H](N)[C@@H]1O` [Example 92, N-(4-((3R,4R,5S)-3-amino-4-hydroxy-5-methylpiperidin-1-yl)pyridin-3-yl)-6-(4-(cyclopropylmethoxy)-2,6-difluorophenyl)-5-fluoropicolinamide]: 34000 pM, 10 pM, 90 pM and 510 pM.
Take `CC(C)Oc1cc(F)c(-c2nc(C(=O)Nc3cnccc3N3C[C@@H](N)[C@H](O)[C@@H](C)C3)ccc2F)c(F)c1` [Example 93, N-(4-((3R,4R,5S)-3-amino-4-hydroxy-5-methylpiperidin-1-yl)pyridin-3-yl)-6-(2,6-difluoro-4-isopropoxyphenyl)-5-fluoropicolinamide]: the EC50 in assay [1] turned out to be 20000 pM. Besides, the IC50 at Pim 1 worked out at 10 pM; at Pim 3, 100 pM; against Pim 2 it was 780 pM.
As for `C[C@H]1C[C@@H](c2ccncc2NC(=O)c2ccc(F)c(-c3c(F)cc(C4CCOCC4)cc3F)n2)C[C@@H](N)[C@@H]1O` [Example 94, N-(4-((1R,3R,4R,5S)-3-amino-4-hydroxy-5-methylcyclohexyl)pyridin-3-yl)-6-(2,6-difluoro-4-(tetrahydro-2H-pyran-4-yl)phenyl)-5-fluoropicolinamide], the EC50 in assay [1] amounted to 24000 pM. For the same molecule, the IC50 on Pim 1 is 10 pM; on Pim 3, 390 pM; against Pim 2, 1290 pM.
The matching figures for `CC(C)Oc1cc(F)c(-c2nc(C(=O)Nc3cnccc3[C@@H]3C[C@H](C)C[C@H](N)C3)c(N)cc2F)c(F)c1` [Example 96, 3-amino-N-(4-((1R,3S,5S)-3-amino-5-methylcyclohexyl)pyridin-3-yl)-6-(2,6-difluoro-4-isopropoxyphenyl)-5-fluoropicolinamide]: 76000 pM, 10 pM, 240 pM and 1160 pM.
For `CC(C)Oc1cc(F)c(-c2nc(C(=O)Nc3cnccc3[C@H]3C[C@@H](N)[C@H](O)[C@@H](C)C3)c(N)cc2F)c(F)c1` [Example 97], in that order: 69000 pM, 20 pM, 370 pM and 1550 pM.
Turning to `C[C@H]1C[C@@H](c2ccncc2NC(=O)c2nc(-c3c(F)cc(C4COC4)cc3F)c(F)cc2N)C[C@@H](N)[C@@H]1O` [Example 98, 3-amino-N-(4-((1R,3R,4R,5S)-3-amino-4-hydroxy-5-methylcyclohexyl)pyridin-3-yl)-6-(2,6-difluoro-4-(oxetan-3-yl)phenyl)-5-fluoropicolinamide], the EC50 in assay [1] amounted to 40000 pM. The IC50 against Pim 1 was 30 pM; on Pim 3 it was 530 pM; at Pim 2, 1380 pM.
With `C[C@H]1CN(c2ccncc2NC(=O)c2ccc(F)c(-c3c(F)cc(C4CCOCC4)cc3F)n2)C[C@@H](N)[C@@H]1O` [Example 99, N-(4-((3R,4R,5S)-3-amino-4-hydroxy-5-methylpiperidin-1-yl)pyridin-3-yl)-6-(2,6-difluoro-4-(tetrahydro-2H-pyran-4-yl)phenyl)-5-fluoropicolinamide], the EC50 in assay [1] is 10000 pM. Further, the IC50 on Pim 1 is 10 pM; against Pim 3 it was 120 pM; on Pim 2, 570 pM.
For `C[C@@H]1C[C@H](N)C[C@H](c2ccncc2NC(=O)c2nc(-c3c(F)cc(C(C)(C)O)cc3F)c(F)cc2N)C1` [Example 100, 3-amino-N-(4-((1R,3S,5S)-3-amino-5-methylcyclohexyl)pyridin-3-yl)-6-(2,6-difluoro-4-(2-hydroxypropan-2-yl)phenyl)-5-fluoropicolinamide], in that order: 12000 pM, 10 pM, 130 pM and 530 pM.
As for `C[C@H]1C[C@@H](c2ccncc2NC(=O)c2nc(-c3c(F)cc(C(C)(C)O)cc3F)c(F)cc2N)C[C@@H](N)[C@@H]1O` [Example 101, 3-amino-N-(4-((1R,3R,4R,5S)-3-amino-4-hydroxy-5-methylcyclohexyl)pyridin-3-yl)-6-(2,6-difluoro-4-(2-hydroxypropan-2-yl)phenyl)-5-fluoropicolinamide], the EC50 in assay [1] is 30000 pM. Also, the IC50 at Pim 1 was 20 pM; on Pim 3, 360 pM; against Pim 2, 1300 pM.
For `C[C@H]1CN(c2ccncc2NC(=O)c2nc(-c3c(F)cc(C(C)(C)O)cc3F)c(F)cc2N)C[C@@H](N)[C@@H]1O` [Example 102, 3-amino-N-(4-((3R,4R,5S)-3-amino-4-hydroxy-5-methylpiperidin-1-yl)pyridin-3-yl)-6-(2,6-difluoro-4-(2-hydroxypropan-2-yl)phenyl)-5-fluoropicolinamide], in that order: 15000 pM, 10 pM, 130 pM and 750 pM.
For `C[C@H]1CN(c2ccncc2NC(=O)c2ccc(F)c(-c3c(F)cc(C4(O)CC4)cc3F)n2)C[C@@H](N)[C@@H]1O` [Example 103, N-(4-((3R,4R,5S)-3-amino-4-hydroxy-5-methylpiperidin-1-yl)pyridin-3-yl)-6-(2,6-difluoro-4-(1-hydroxycyclopropyl)phenyl)-5-fluoropicolinamide], in that order: 21000 pM, 20 pM, 370 pM and 680 pM.
The matching figures for `CCC(=O)c1cc(F)c(-c2nc(C(=O)Nc3cnccc3N3C[C@@H](N)[C@H](O)[C@@H](C)C3)ccc2F)c(F)c1` [Example 104, N-(4-((3R,4R,5S)-3-amino-4-hydroxy-5-methylpiperidin-1-yl)pyridin-3-yl)-6-(2,6-difluoro-4-propionylphenyl)-5-fluoropicolinamide]: 19000 pM, 20 pM, 450 pM and 950 pM.

Values taken from US20120225062A1 (priority 2011, published 2012).
